The target in assay [1] is T1, α1b-AR (Homo sapiens, UniProt P35368).
T1 sequence (P35368 1-520): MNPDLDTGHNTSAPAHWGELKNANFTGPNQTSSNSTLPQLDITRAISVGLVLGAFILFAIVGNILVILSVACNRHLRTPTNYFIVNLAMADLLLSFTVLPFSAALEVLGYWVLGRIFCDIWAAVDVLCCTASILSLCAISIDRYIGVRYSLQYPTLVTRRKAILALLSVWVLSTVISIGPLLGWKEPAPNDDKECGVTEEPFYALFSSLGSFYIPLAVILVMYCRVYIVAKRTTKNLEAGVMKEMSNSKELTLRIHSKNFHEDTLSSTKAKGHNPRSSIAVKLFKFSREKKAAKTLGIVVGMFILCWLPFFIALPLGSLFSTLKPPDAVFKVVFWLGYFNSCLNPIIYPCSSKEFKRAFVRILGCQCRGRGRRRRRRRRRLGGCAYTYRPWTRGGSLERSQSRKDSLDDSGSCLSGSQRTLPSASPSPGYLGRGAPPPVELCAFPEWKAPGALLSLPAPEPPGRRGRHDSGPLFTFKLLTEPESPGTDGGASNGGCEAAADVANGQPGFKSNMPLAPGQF
In words: α1-Adrenergic receptor radio-ligand (125I-HEAT) binding assay, α1b subtype. The note with it: for Ki: Receptor Binding, Ki α1b-AR, COS-7 cell membranes, 125I-HEAT.

The target of assay [2] is T2, α1d-AR (Homo sapiens, UniProt P25100).
T2 construct: expressed in transfected cells; host or cells: COS-7
T2 sequence (P25100 1-572): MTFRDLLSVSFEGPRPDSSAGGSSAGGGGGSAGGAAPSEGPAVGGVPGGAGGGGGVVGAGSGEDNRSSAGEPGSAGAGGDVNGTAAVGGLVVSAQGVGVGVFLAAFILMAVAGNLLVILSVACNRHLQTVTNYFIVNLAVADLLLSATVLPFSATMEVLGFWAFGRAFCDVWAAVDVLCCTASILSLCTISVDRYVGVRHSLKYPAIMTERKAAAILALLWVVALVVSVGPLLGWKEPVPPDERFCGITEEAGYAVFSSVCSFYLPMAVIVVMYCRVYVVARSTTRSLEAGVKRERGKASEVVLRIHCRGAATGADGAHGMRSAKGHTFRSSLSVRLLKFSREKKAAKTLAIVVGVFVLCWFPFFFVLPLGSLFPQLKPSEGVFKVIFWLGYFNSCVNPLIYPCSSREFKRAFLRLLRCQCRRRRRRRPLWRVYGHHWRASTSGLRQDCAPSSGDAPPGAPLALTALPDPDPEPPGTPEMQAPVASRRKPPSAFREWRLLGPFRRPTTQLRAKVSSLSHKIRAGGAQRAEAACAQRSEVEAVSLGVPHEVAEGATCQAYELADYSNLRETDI
In words: α1-Adrenergic receptor radio-ligand (125I-HEAT) binding assay, α1d subtype. The note with it: for Ki: COS-7 cell membranes, 125I-HEAT, read-out: Receptor Binding, Ki α1d-AR. How it is done:
(§1) α1-Adrenergic Receptor Binding Assay: Preparation of COS Cell Membranes
(§2) Membranes were prepared from COS-7 cells that had been transfected with one of the three α1-AR subtypes by the following method. COS cells from ten 100 mm tissue culture plates were scraped into 5 mL TE (50 mM Tris-HCl, 5 mM EDTA, pH 7.4). The cell suspension was disrupted with a Brinkman Polytron, setting 8, for 10 sec. The disrupted cells were centrifuged at 1000×g for 10 min at 4° C. Supernatants were centrifuged at 34,500×g for 20 min at 4° C. The membrane pellets were suspended in 2 mL TNE (50 mM Tris-HCl, 5 mM EDTA, 150 mM NaCl, pH7.4). An aliquot of the membrane suspension was stored at −70° C. until use. The protein concentration was determined using the BioRad DC protein assay kit following membrane solubilization with Triton X-100.
(§3) Radio-Ligand Binding Assay
Triplicate determinations of radio-ligand binding in the presence of increasing: concentrations of testing compound were made. The reagents were added to 96-well polypropylene plate wells using the Biomek 1000 robot (Beckman Instruments). […] The plate was incubated at rt for 1 hr. The contents of the wells were filtered through a GF/C membrane Unifilter plate (Packard Instruments) using the Packard Filtermate cell harvester. The filter plates were dried in a vacuum oven for 30 min at 40° C. 25 μL Microscint 20 liquid scintillation fluid (Packard Instuments) was added to each well. The radioactive content was analyzed in the TopCount microplate scintillation counter (Packard Instruments).

In assay [3] the target is T3, α1a-AR (Homo sapiens, UniProt P35348).
T3 construct: expressed in transfected cells; host or cells: COS-7
T3 sequence (P35348 1-466): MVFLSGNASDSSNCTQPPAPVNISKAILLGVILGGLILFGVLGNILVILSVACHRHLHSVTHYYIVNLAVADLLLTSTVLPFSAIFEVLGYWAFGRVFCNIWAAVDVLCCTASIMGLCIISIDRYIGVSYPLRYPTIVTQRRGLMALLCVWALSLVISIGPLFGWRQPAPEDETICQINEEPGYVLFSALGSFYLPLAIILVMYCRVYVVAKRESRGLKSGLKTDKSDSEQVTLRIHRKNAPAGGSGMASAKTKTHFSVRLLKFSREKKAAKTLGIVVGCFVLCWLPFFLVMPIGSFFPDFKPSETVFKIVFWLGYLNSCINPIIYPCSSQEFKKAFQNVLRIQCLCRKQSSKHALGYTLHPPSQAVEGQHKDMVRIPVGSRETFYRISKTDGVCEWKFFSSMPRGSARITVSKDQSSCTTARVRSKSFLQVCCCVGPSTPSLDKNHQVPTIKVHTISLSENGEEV
Kind of assay: α1-Adrenergic receptor radio-ligand (125I-HEAT) binding assay, α1a subtype. Particulars: for Ki: COS-7 cell membranes, 125I-HEAT. How it is done: as §1, §2, §3
Triplicate determinations of radio-ligand binding in the presence of increasing: concentrations of testing compound were made. The reagents were added to 96-well polypropylene plate wells using the Biomek 1000 robot (Beckman Instruments). Each assay well contained 140 μl TNE, 25 μL ^125I-HEAT (specific activity 2200 Ci/mmol, Dupont-NEN, 50 pM final), 10 μL testing compound dissolved in DMSO (1 pM to 10 μM in half-log increments, final), and 25 μL appropriate α1-AR membrane subtype suspension in TNE (0.5 ng/μL for the α1a and α1b subtypes and 13 ng/μL for the α1d subtype). The plate was incubated at rt for 1 hr. The contents of the wells were filtered through a GF/C membrane Unifilter plate (Packard Instruments) using the Packard Filtermate cell harvester. The filter plates were dried in a vacuum oven for 30 min at 40° C. 25 μL Microscint 20 liquid scintillation fluid (Packard Instuments) was added to each well. The radioactive content was analyzed in the TopCount microplate scintillation counter (Packard Instruments).

One may read the Ki as a dissociation constant, usually derived from enzyme kinetics or from competition with a known ligand. Broadly, the Kd is the equilibrium constant for the complex coming apart.

As for `COc1ccc(S(=O)(=O)N[C@H]2CC[C@H](N3CCN(c4ccccc4OCC(F)(F)F)CC3)CC2)cc1OC` [Cpd 70], the Ki in assay [1] amounted to 34.8 nM; in assay [2], 8.3 nM; in assay [3], 54.2 nM.

Take `CC(C)Oc1ccccc1N1CCN([C@H]2CC[C@H](NS(=O)(=O)c3cc(Cl)ccc3F)CC2)CC1` [Cpd 40, 5-Chloro-2-fluoro-N-trans-{4-[4-(2-isopropoxy-phenyl)-piperazin-1-yl]-cyclohexyl}-benzenesulfonamide]: the Ki in assay [1] worked out at 441 nM; in assay [2] it was 27.3 nM; in assay [3] it was 8.9 nM.

Take `CC(C)Oc1ccccc1N1CCN([C@H]2CC[C@H](NS(=O)(=O)c3ccc(Cl)cc3Cl)CC2)CC1` [Cpd 29, 2,4-Dichloro-N-trans-{4-[4-(2-isopropoxy-phenyl)-piperazine-1-yl]-cyclohexyl}-benzenesulfonamide]: the Ki is 596 nM in assay [1], 8.6 nM in assay [2] and 1.6 nM in assay [3].

Consider `CC(C)Oc1ccccc1N1CCN([C@H]2CC[C@H](NS(=O)(=O)c3cccc4cccnc34)CC2)CC1` [Cpd 63, Quinoline-8-sulfonic acid N-trans-{4-[4-(2-isopropoxy-phenyl)-piperazin-1-yl]-cyclohexyl}-amide], for which the Ki came to 77.6 nM in assay [1], 22.1 nM in assay [2] and 0.5 nM in assay [3].

For the molecule `CC(C)Oc1ccccc1N1CCN([C@H]2CC[C@@H](NS(=O)(=O)c3cccc4cccnc34)CC2)CC1` [Cpd 58, Quinoline-8-sulfonic acid N-cis-{4-[4-(2-isopropoxy-phenyl)-piperazin-1-yl]-cyclohexyl}-amide], the Ki in assay [1] was 116 nM; in assay [2], 4.3 nM; in assay [3], 8.3 nM.

As for `COc1ccc(Cl)cc1S(=O)(=O)N[C@H]1CC[C@@H](N2CCN(c3ccc(F)cc3OCC(F)(F)F)CC2)CC1` [Cpd 76, 5-Chloro-N-cis-(4-{4-[4-fluoro-2-(2,2,2-trifluoro-ethoxy)-phenyl]-piperazin-1-yl}-cyclohexyl)-2-methoxy-benzenesulfonamide], the figures for the Ki in assay [1], in assay [2] and in assay [3] were 196 nM, 8.5 nM and 17 nM, respectively.

Take `O=S(=O)(N[C@H]1CC[C@H](N2CCN(c3ccc(F)cc3OCC(F)(F)F)CC2)CC1)c1cc(Cl)ccc1F` [Cpd 82, 5-Chloro-2-fluoro-N-trans-(4-{4-[4-fluoro-2-(2,2,2-trifluoro-ethoxy)-phenyl]-piperazin-1-yl}-cyclohexyl)-benzenesulfonamide]: the figures for the inhibition constant (Ki) in assay [1], in assay [2] and in assay [3] were 442 nM, 240 nM and 52 nM, respectively.

On to `CC(C)Oc1ccccc1N1CCN([C@H]2CC[C@H](NS(=O)(=O)c3ccc(C(F)(F)F)cc3)CC2)CC1` [Cpd 37, N-trans-{4-[4-(2-Isopropoxy-phenyl)-piperazin-1-yl]-cyclohexyl}-4-trifluoromethyl-benzenesulfonamide], for which the Ki stood at 931 nM in assay [1], 65 nM in assay [2] and 67 nM in assay [3].

`O=C1c2ccccc2CCC1CNCCc1ccc(O)c(I)c1` (stereo not drawn) [125I-HEAT, reference compound]: the Kd is 79 nM in assay [1] (read-out: Kd used in the Ki calculation, α1b-AR, radio-ligand); 50 nM in assay [2] (radio-ligand, read-out: Kd used in the Ki calculation, α1d-AR); 81.5 nM in assay [3] (radio-ligand, read-out: Kd used in the Ki calculation, α1a-AR).

In the case of `COc1ccc(F)cc1S(=O)(=O)N[C@H]1CC[C@H](N2CCN(c3ccccc3OC(C)C)CC2)CC1` [Cpd 43, 5-Fluoro-N-trans-{4-[4-(2-isopropoxy-phenyl)-piperazin-1-yl]-cyclohexyl}-2-methoxy-benzenesulfonamide], the Ki in assay [1] is 714 nM; in assay [2], 66 nM; in assay [3] it was 11 nM.

As for `CC(C)Oc1ccccc1N1CCN([C@H]2CC[C@@H](NS(=O)(=O)c3cc(Cl)ccc3F)CC2)CC1` [Cpd 12, 5-Chloro-2-fluoro-N-cis-{4-[4-(2-isopropoxy-phenyl)-piperazin-1-yl]-cyclohexyl}-benzenesulfonamide], the Ki in assay [1] is 66 nM; in assay [2], 0.4 nM; in assay [3], 3.8 nM.

The values are drawn from patent publication US20060173015A1, “Cyclohexyldiamines as selective alpha 1a/1d adrenoreceptor antagonists for the treatment of benign prostatic hypertrophy and lower urinary tract symptoms” (priority 2004, published 2006).
